These results are taken from US12527753B2, “Cysteamine for the treatment, mitigation and prevention of coronaviral, e.g., SARS-CoV-2, infections” (The Regents of the University of Michigan, priority 2020, dated 2026).

Where a name gives a salt, the structure may show the parent alone. Read-outs that look alike come from different tables or passages of the source.

Common to all, as to assay: Virus pre-incubation, plaque formation in TMPRSS cells
Type in all cases: cell-based

One test relates to SARS-CoV-2 Delta variant. The settings on record: 10 mM; for inhibition at 10000 µM: read-out: inhibition / inactivation.
The next test deals with SARS-CoV-2 variant gamma. The settings on record: Severe acute respiratory syndrome coronavirus 2, 2 h; 5 mM, 120 min incubation.
The subject of the next test is SARS-CoV-2 variant alpha. To be noted: Severe acute respiratory syndrome coronavirus 2, 2 h; 5 mM, 120 min incubation.
The test system of a further test is SARS-CoV-2 variant beta. To be noted: Severe acute respiratory syndrome coronavirus 2, 2 h; 5 mM, 120 min incubation.

As for `NCCS` [cysteamine HCl], the inhibition at 10000 µM was determined as 100% in the test with SARS-CoV-2 Delta variant (Severe acute respiratory syndrome coronavirus 2, 2 h, 120 min incubation) and 85% with SARS-CoV-2 Delta variant (Severe acute respiratory syndrome coronavirus 2, 15 min incubation, sustained through 90 minutes). For the same compound, the inhibition at 5000 µM in the test on SARS-CoV-2 variant gamma, in the test with SARS-CoV-2 variant alpha and in the test with SARS-CoV-2 variant beta was 85 to 95% throughout.
2-aminoethanethiol [cysteamine]: the inhibition / inactivation was determined as 85% in the test on SARS-CoV-2 Delta variant (15 min incubation, sustained through 90 minutes) and 100% in the test with SARS-CoV-2 Delta variant (120 min incubation).
